Active and inactive are the calls of the source.
Tests used:
[1] = biological target: T1, Short transient receptor potential channel 4 (Mus musculus, UniProt Q9QUQ5); experiment: calcium entry via TRPC4 opening agents – cell-based, HEK293 TRPC4/mu-opioid, Fluo-4 calcium, dose response (AID 434937); format: functional
T1 sequence (Q9QUQ5 whole entry): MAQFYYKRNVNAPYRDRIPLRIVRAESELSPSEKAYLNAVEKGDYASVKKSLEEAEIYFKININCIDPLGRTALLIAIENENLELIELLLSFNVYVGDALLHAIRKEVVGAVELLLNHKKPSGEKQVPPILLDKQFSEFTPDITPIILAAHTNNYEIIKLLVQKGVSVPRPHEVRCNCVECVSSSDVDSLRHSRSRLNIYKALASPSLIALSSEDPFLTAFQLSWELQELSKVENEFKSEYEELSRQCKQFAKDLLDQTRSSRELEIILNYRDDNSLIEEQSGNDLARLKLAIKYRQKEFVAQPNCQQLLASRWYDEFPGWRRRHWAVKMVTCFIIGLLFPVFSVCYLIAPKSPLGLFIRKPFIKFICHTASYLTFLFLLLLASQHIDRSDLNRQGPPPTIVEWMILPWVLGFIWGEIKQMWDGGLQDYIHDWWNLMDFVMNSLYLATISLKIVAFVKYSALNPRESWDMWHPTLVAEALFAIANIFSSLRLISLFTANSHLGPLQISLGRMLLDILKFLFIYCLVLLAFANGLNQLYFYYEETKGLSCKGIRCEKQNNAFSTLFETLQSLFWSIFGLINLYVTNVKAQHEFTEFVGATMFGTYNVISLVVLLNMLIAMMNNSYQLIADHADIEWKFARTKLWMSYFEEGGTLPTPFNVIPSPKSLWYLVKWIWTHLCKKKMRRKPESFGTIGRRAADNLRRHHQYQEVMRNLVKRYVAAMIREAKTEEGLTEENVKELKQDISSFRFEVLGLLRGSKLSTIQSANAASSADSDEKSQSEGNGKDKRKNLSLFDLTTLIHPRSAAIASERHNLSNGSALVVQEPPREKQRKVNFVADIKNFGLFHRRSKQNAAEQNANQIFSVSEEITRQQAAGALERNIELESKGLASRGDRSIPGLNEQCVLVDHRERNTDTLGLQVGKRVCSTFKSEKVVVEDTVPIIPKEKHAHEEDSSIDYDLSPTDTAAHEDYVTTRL

[2] = biological target: T1, Short transient receptor potential channel 4; experiment: block of DAMGO-driven TRPC4 calcium entry – cell-based, HEK293 TRPC4/mu-opioid, Fluo-4 calcium, dose response (AID 434942); format: functional;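 note: potency of inhibitors blocking the TRPC4 calcium response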
[3] = viability loss of HPDE-C7K cells – cell-based, fluorescence, HTS, primary screen (AID 431); format: functional; conditions: Homo sapiens
[4] = HPDE-C7 pancreatic duct cell viability loss – fluorescence, HTS (AID 430); format: functional, cell-based; conditions: Homo sapiens
[5] = biological target: T2, Hexokinase (Trypanosoma brucei, UniProt Q38C41); experiment: Confirmation assay for inhibitors of Trypanosoma brucei hexokinase 1-Analogue-first series. [Related pubchem assays (depositor defined):AID1430, AID1632, AID2516, AID2560, AID2579, AID2600, AID449725, AID492951]; format: functional
T2 sequence (Q38C41 whole entry): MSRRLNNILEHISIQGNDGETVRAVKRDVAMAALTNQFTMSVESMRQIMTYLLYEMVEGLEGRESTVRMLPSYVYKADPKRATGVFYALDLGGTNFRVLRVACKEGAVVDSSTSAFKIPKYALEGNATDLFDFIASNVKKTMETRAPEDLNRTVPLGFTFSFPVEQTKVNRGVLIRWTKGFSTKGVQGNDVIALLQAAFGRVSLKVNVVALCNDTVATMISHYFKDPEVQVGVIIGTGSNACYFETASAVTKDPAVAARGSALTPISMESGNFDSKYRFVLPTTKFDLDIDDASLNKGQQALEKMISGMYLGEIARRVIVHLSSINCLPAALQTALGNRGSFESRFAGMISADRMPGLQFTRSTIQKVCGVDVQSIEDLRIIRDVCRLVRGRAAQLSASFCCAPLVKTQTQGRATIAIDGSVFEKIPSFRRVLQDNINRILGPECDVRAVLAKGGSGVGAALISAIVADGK

[6] = tested on: Jurkat; experiment: blockers of NF-kB activation in T cells – Jurkat, luciferase reporter, luminescence, B- and T-cell, dose response (AID 489004); format: functional, cell-based; conditions: Homo sapiens;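 note: NF-kB luciferase reporter Jurkat cells stimulated with PMA plus ionomycin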
[7] = HEK-293T viability loss, compound-treated – cell-based, uHTS hits, cytotoxicity control for B/T-cell NF-kB inhibitor project, dose response (AID 489019); format: functional;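 note: IC50 reflects cytotoxicity as loss of cell viability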
[8] = alpha-synuclein stem-loop luciferase translation blockers – H4 neuroglioma cells, luminescence, confirmation (AID 1988); format: functional, cell-based
[9] = activation of miR-122 Renilla sensor silencing – cell-based, Huh7 psiCHECK-miR122, Renilla luciferase, cherry-picked, dose response (AID 651956); format: functional;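 note: huh7 hepatoma cells stably carrying a psiCHECK-2 miR-122 sensor plasmid; renilla luciferase signal reporting endogenous miR-122 activity after 48 h compound exposure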
[10] = Luminescence Cell-Based Dose Retest to Confirm Inhibitors of Cancer Stem Cells. [Related pubchem assays (depositor defined):AID2717, AID2721]; format: functional; conditions: Homo sapiens
[11] = general mammalian cell viability loss – inhibitor set, cherry-pick, set 2, cytotoxicity control for miR-122 modulator project, dose response (AID 720697); format: functional, cell-based
[12] = Luminescence Cell-Based Dose Response HTS to Identify Inhibitors of 5'UTR Stem-Loop Driven Prion Protein mRNA Translation in H4 Neuroglioblastoma Cells. [Related pubchem assays: 1827 (Project Summary), 1813 (Primary HTS)]; format: functional
[13] = fluconazole-exposed Candida albicans growth modulators – fluorescence, retest, confirmation (AID 2467); format: functional, cell-based
[14] = biological target: T3, CAAX prenyl protease 2 (Homo sapiens, UniProt Q9Y256); experiment: inhibition of Ras-converting CAAX protease Rce1 – biochemical, yeast membranes, quenched-peptide fluorescence, cherry-pick, dose response (AID 588849)
T3 sequence (Q9Y256 whole entry): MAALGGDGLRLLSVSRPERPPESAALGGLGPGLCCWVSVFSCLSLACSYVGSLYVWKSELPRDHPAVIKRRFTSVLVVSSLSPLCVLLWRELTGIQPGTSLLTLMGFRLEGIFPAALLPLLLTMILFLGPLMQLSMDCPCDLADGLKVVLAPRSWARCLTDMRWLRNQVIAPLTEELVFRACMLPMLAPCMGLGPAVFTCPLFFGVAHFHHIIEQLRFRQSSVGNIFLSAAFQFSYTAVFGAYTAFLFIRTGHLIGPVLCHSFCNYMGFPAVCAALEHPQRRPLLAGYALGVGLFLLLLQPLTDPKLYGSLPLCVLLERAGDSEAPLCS

[15] = biological target: T4, Adenosylmethionine-8-amino-7-oxononanoate aminotransferase (Mycobacterium tuberculosis, UniProt P9WQ81); experiment: Mycobacterium tuberculosis BioA enzyme inhibitor Measured in Biochemical System Using Plate Reader - 2163-02_Inhibitor_Dose_CherryPick_Activity.; format: functional, Mycobacterium tuberculosis UT205
T4 sequence (P9WQ81 whole entry): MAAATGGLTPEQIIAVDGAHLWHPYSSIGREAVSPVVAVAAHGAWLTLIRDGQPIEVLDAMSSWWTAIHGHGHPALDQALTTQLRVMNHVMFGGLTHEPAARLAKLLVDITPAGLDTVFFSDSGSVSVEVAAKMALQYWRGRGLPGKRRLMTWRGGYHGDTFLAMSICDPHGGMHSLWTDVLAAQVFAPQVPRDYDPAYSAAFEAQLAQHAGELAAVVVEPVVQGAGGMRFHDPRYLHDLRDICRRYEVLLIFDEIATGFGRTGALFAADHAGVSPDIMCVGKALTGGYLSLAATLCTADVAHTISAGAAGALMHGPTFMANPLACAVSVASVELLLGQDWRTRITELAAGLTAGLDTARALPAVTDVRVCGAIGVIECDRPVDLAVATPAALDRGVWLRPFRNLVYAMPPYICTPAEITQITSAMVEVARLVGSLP

[16] = biological target: T5, CAAX prenyl protease 2 (Saccharomyces cerevisiae S288c, UniProt Q03530); format: biochemical
T5 sequence (Q03530 whole entry): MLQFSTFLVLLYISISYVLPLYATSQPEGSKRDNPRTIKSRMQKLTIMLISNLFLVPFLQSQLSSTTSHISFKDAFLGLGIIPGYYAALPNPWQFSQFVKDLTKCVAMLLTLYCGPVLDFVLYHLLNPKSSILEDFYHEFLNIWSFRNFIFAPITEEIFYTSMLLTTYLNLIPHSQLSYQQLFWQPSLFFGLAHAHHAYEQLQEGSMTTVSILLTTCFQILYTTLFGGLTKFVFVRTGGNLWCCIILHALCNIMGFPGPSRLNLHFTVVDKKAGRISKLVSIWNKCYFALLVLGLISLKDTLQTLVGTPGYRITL

[17] = NIH-3T3 fibroblast cytotoxicity, dose response, cytotoxicity control, cell-based, fluorescence, Alamar Blue, secondary assay (AID 2327); format: functional;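 note: NIH-3T3 mouse fibroblasts cultured with fluconazole at 8 µg/mL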

Compound: OCC1(CC2CCCCO2)CCN(Cc2nc3ccccc3[nH]2)CC1 (stereo not drawn)
- EC50 [1]: 5.31 µM (active)
- EC50 [2]: 3.35 µM (active)

Compound: CCCCN(CC)CCCNC(=O)Cn1nc(Cc2ccncc2)c2ccccc2c1=O
- EC50 [3]: > 20 µM (not active)
- EC50 [4]: > 20 µM (not active)
- EC50 [1]: 0.168 µM (active)

Compound: O=C(Cn1sc2ccccc2c1=O)Nc1ccccc1F
- IC50 [5]: 5.8 µM (active)

Compound: Nc1nc(Cl)nc2c1ncn2[C@H]1C[C@H](O)[C@@H](CO)O1 [CLADRIBINE]
- IC50 [6]: 0.66 µM (active)
- IC50 [7]: > 80 µM (inactive)
- EC50 [8]: 2.96 µM (active)
- AC50 [9]: 50.9 µM (active)
- AC50 [10]: 0.24 µM (active)
- AC50 [11]: 9.07 µM (active)
- EC50 [12]: 4.8 µM (active)

Compound: O=[N+]([O-])c1ccc(C[n+]2c(-c3ccccc3)cc(-c3ccccc3)cc2-c2ccccc2)cc1.[O-][Cl+3]([O-])([O-])[O-]
- EC50 [13]: 2.75 µM (active)
- AC50 [14]: 68.4 µM (active)
- AC50 [15]: 4.55 µM (active)
- AC50 [16]: 81.6 µM (active)
- EC50 [17]: 23.7 µM (active)

From ChEMBL document CHEMBL1201862, “PubChem BioAssay data set” (2004)
